20 compounds from patent US8785429B2, “Dihydropyrrolonaphthyridinone compounds as inhibitors of JAK” (Takeda Pharmaceutical Company Limited, priority 2009, dated 2014) can be followed below.

One experiment addresses T1, JAK2 (Homo sapiens, UniProt O60674).
T1 construct: purchased Invitrogen
As to the kind of experiment: Assay for JAK2 Inhibition (phosphorylation of FAM-labeled substrate, Caliper LC-3000). It is filed as biochemical. The following applies: −log10(IC50), IC50 is the molar concentration at 50% inhibition; read-out: JAK2 pIC50 (converted).

The target in another experiment is T2, JAK3 (Homo sapiens, UniProt P52333).
T2 construct: purchased Invitrogen
T2 sequence (P52333 1-1124): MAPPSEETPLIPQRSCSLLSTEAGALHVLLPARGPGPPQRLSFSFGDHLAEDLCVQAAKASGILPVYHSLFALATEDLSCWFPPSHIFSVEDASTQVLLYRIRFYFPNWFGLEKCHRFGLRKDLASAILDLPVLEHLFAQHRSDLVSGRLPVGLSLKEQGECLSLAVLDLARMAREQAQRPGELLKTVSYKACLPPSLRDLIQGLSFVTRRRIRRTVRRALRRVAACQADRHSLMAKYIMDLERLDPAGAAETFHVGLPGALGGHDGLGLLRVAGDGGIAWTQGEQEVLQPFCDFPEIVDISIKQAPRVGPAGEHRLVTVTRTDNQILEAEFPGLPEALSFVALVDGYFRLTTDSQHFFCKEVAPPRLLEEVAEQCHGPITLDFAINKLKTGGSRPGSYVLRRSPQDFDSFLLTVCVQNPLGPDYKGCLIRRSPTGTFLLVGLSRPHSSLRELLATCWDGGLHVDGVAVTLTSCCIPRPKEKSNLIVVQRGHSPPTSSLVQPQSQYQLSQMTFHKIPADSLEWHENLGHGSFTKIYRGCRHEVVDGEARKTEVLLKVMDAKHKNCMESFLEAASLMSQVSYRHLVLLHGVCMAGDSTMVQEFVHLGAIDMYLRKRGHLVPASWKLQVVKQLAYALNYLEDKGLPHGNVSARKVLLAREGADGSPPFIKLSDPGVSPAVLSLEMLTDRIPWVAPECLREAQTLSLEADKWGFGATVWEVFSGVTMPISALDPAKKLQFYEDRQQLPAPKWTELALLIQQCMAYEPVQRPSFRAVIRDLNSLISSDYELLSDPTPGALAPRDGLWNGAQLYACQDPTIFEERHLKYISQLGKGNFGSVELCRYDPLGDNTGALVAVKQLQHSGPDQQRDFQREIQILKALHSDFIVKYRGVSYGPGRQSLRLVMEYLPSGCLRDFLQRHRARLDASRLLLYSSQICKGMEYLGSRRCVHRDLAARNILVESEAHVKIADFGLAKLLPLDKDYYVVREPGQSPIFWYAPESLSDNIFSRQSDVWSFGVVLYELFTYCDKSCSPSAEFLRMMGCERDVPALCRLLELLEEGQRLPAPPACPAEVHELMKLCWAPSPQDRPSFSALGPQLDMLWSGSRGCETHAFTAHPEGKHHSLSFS
As to the kind of experiment: Assay for JAK3 Inhibition (phosphorylation of FAM-labeled substrate, Caliper LC-3000). It is filed as biochemical. The following applies: −log10(IC50), IC50 is the molar concentration at 50% inhibition; read-out: JAK3 pIC50 (converted).

Structures are written as SMILES.

T1 sequence (O60674 whole entry): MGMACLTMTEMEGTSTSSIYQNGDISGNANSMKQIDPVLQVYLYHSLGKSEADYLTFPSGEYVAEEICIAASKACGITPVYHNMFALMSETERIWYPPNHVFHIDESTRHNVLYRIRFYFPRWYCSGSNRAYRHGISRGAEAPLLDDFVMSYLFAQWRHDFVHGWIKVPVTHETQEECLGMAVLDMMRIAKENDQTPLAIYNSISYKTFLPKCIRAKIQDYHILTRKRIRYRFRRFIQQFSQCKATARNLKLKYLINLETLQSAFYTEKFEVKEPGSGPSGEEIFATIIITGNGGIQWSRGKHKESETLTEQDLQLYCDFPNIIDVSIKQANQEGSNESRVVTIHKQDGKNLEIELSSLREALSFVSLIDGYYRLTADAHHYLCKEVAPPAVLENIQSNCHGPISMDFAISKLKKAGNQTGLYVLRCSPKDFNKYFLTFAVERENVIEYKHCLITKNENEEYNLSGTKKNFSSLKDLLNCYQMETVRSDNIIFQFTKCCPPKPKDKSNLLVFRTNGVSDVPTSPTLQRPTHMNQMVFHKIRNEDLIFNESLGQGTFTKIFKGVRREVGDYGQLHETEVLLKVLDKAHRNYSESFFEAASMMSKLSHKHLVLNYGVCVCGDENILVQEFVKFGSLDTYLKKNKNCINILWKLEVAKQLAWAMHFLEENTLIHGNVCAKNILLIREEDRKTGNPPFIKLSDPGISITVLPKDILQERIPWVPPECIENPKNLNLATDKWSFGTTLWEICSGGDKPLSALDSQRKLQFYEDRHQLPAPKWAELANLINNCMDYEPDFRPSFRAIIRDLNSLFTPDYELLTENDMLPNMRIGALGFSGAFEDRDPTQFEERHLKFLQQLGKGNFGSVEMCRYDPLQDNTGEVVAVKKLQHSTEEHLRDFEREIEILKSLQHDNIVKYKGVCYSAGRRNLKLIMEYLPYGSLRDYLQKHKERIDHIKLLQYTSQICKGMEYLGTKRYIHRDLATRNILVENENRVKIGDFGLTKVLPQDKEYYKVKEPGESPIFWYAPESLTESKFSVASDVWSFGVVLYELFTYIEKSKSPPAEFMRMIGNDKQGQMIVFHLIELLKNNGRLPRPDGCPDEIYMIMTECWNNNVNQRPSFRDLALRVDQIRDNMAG

With `CC[C@H](C(=O)NC(C)CO)N1Cc2ccnc3[nH]cc(c23)C1=O` (stereo partly drawn) [Example 69, (2R)—N-(1-hydroxypropan-2-yl)-2-(3-oxopyrrolo[4,3,2-de][2,6]naphthyridin-4(1H,3H,5H)-yl)butanamide], the IC50 is 10 µM at JAK2 and 0.631 µM at JAK3.

As for `CC[C@H](C(=O)NCC(C)(C)O)N1Cc2ccnc3[nH]cc(c23)C1=O` [Example 70, (R)—N-(2-hydroxy-2-methylpropyl)-2-(3-oxopyrrolo[4,3,2-de][2,6]naphthyridin-4(1H,3H,5H)-yl)butanamide], the values for the IC50 on JAK2 and at JAK3 were 10 µM and 0.501 µM, respectively.

As to `CC[C@H](C(=O)NC[C@H](O)CO)N1Cc2ccnc3[nH]cc(c23)C1=O` [Example 71, (R)—N—((S)-2,3-dihydroxypropyl)-2-(3-oxopyrrolo[4,3,2-de][2,6]naphthyridin-4(1H,3H,5H)-yl)butanamide], the IC50 at JAK2 was 5.01 µM; at JAK3, 0.794 µM.

As for `CC[C@H](C(=O)Nc1ccccc1)N1Cc2ccnc3[nH]cc(c23)C1=O` [Example 72, (R)-2-(3-oxopyrrolo[4,3,2-de][2,6]naphthyridin-4(1H,3H,5H)-yl)-N-phenylbutanamide], the figures for the IC50 at JAK2 and at JAK3 were 2 µM and 0.126 µM, respectively.

Regarding `CC[C@H](C(=O)NC1CCN(S(C)(=O)=O)CC1)N1Cc2ccnc3[nH]cc(c23)C1=O` [Example 73, (R)—N-(1-(methylsulfonyl)piperidin-4-yl)-2-(3-oxopyrrolo[4,3,2-de][2,6]naphthyridin-4(1H,3H,5H)-yl)butanamide], the IC50 was 3.16 µM on JAK2 and 0.158 µM on JAK3.

On to `CC[C@H](C(=O)NCC1CCCO1)N1Cc2ccnc3[nH]cc(c23)C1=O` (stereo partly drawn) [Example 74, (2R)-2-(3-oxopyrrolo[4,3,2-de][2,6]naphthyridin-4(1H,3H,5H)-yl)-N-((tetrahydrofuran-2-yl)methyl)butanamide], for which the IC50 on JAK2 is 7.94 µM; on JAK3, 0.794 µM.

For the compound `CC(C#N)NC(=O)[C@@H](C(C)C)N1Cc2c(F)cnc3[nH]cc(c23)C1=O` (stereo partly drawn) [Example 75, (2R)—N-(1-cyanoethyl)-2-(6-fluoro-3-oxopyrrolo[4,3,2-de][2,6]naphthyridin-4(1H,3H,5H)-yl)-3-methylbutanamide], the IC50 at JAK2 is 0.794 µM; at JAK3, 0.0316 µM.

`CC(C)[C@H](C(=O)N1CC(F)(F)C1)N1Cc2c(F)cnc3[nH]cc(c23)C1=O` [Example 76, (R)-4-(1-(3,3-difluoroazetidin-1-yl)-3-methyl-1-oxobutan-2-yl)-6-fluoro-4,5-dihydropyrrolo[4,3,2-de][2,6]naphthyridin-3(1 H)-one]: the IC50 at JAK2 is 1 µM; at JAK3, 0.0631 µM.

Consider `CC(C)[C@H](C(=O)N1CCS(=O)(=O)C1)N1Cc2c(F)cnc3[nH]cc(c23)C1=O` [Example 77, (R)-4-(1-(1,1-dioxidothiazolidin-3-yl)-3-methyl-1-oxobutan-2-yl)-6-fluoro-4,5-dihydropyrrolo[4,3,2-de][2,6]naphthyridin-3(1H)-one], for which the IC50 on JAK2 was 1.58 µM; on JAK3, 0.0631 µM.

As for `CC(C)[C@H](C(=O)N(C)CCS(C)(=O)=O)N1Cc2c(F)cnc3[nH]cc(c23)C1=O` [Example 78, (R)-2-(6-fluoro-3-oxopyrrolo[4,3,2-de][2,6]naphthyridin-4(1H,3H,5H)-yl)-N,3-dimethyl-N-(2-(methylsulfonyl)ethyl)butanamide], the IC50 is 10 µM on JAK2 and 3.98 µM on JAK3.

Consider `CC(C)[C@H](C(=O)N(C)CC#N)N1Cc2c(F)cnc3[nH]cc(c23)C1=O` [Example 79, (R)—N-(cyanomethyl)-2-(6-fluoro-3-oxopyrrolo[4,3,2-de][2,6]naphthyridin-4(1H,3H,5H)-yl)-N,3-dimethylbutanamide], for which the figures for the IC50 at JAK2 and at JAK3 were 2.51 µM and 0.126 µM, respectively.

For `CC(C)[C@H](C(=O)N1CC(C(F)F)C1)N1Cc2c(F)cnc3[nH]cc(c23)C1=O` [Example 80, (R)-4-(1-(3-(difluoromethyl)azetidin-1-yl)-3-methyl-1-oxobutan-2-yl)-6-fluoro-4,5-dihydropyrrolo[4,3,2-de][2,6]naphthyridin-3(1H)-one], the values for the IC50 on JAK2 and on JAK3 were 0.398 µM and 0.0158 µM, respectively.

For the compound `CC(C)[C@H](C(=O)N1CC(C#N)C1)N1Cc2ccnc3[nH]cc(c23)C1=O` [Example 81, (R)-1-(3-methyl-2-(3-oxopyrrolo[4,3,2-de][2,6]naphthyridin-4(1H,3H,5H)-yl)butanoyl)azetidine-3-carbonitrile], the IC50 is 0.126 µM at JAK2 and 0.00501 µM on JAK3.

In the case of `CC(C)(C)[C@H](C(=O)N1CC(C#N)C1)N1Cc2ccnc3[nH]cc(c23)C1=O` [Example 82, (R)-1-(3,3-dimethyl-2-(3-oxopyrrolo[4,3,2-de][2,6]naphthyridin-4(1H,3H,5H)-yl)butanoyl)azetidine-3-carbonitrile], the IC50 at JAK2 is 0.0398 µM; on JAK3 it was 0.002 µM.

Regarding `CC(C)(C)[C@H](C(=O)NCC#N)N1Cc2ccnc3[nH]cc(c23)C1=O` [Example 83, (R)—N-(cyanomethyl)-3,3-dimethyl-2-(3-oxopyrrolo[4,3,2-de][2,6]naphthyridin-4(1H,3H,5H)-yl)butanamide], the IC50 at JAK2 was 0.251 µM; on JAK3, 0.0126 µM.

In the case of `CC(C)[C@H](C(=O)N1CCC[C@H]1C#N)N1Cc2c(Cl)cnc3[nH]cc(c23)C1=O` [Example 84, (S)-1-((R)-2-(6-chloro-3-oxopyrrolo[4,3,2-de][2,6]naphthyridin-4(1H,3H,5H)-yl)-3-methylbutanoyl)pyrrolidine-2-carbonitrile], the results for the IC50 at JAK2 and on JAK3 were 3.16 µM and 0.2 µM, respectively.

Regarding `CC(C)[C@H](C(=O)N1CCC[C@@H]1C#N)N1Cc2c(Cl)cnc3[nH]cc(c23)C1=O` [Example 85, (R)-1-((R)-2-(6-chloro-3-oxopyrrolo[4,3,2-de][2,6]naphthyridin-4(1H,3H,5H)-yl)-3-methylbutanoyl)pyrrolidine-2-carbonitrile], the figures for the IC50 on JAK2 and at JAK3 were 1.58 µM and 0.1 µM, respectively.

For the compound `CC(C)[C@H](C(=O)N1C[C@@H](F)C[C@H]1C#N)N1Cc2c(Cl)cnc3[nH]cc(c23)C1=O` [Example 86, (2S,4S)-1-((R)-2-(6-chloro-3-oxopyrrolo[4,3,2-de][2,6]naphthyridin-4(1H,3H,5H)-yl)-3-methylbutanoyl)-4-fluoropyrrolidine-2-carbonitrile], the results for the IC50 at JAK2 and on JAK3 were 0.398 µM and 0.0251 µM, respectively.

For the compound `Cc1cnc2[nH]cc3c2c1CN([C@@H](C(=O)N1CC(C#N)C1)C(C)(C)C)C3=O` [Example 87, (R)-1-(3,3-dimethyl-2-(6-methyl-3-oxopyrrolo[4,3,2-de][2,6]naphthyridin-4(1H,3H,5H)-yl)butanoyl)azetidine-3-carbonitrile], the IC50 at JAK2 was 0.0501 µM; on JAK3, 0.00316 µM.

`Cc1cnc2[nH]cc3c2c1CN([C@@H](C(=O)N1CC(C#N)C1)C(C)C)C3=O` [Example 88, (R)-1-(3-methyl-2-(6-methyl-3-oxopyrrolo[4,3,2-de][2,6]naphthyridin-4(1H,3H,5H)-yl)butanoyl)azetidine-3-carbonitrile]: the IC50 at JAK2 was 0.0251 µM; at JAK3, 0.00158 µM.
